Source: US8853258B2, “C-linked hydroxamic acid derivatives useful as antibacterial agents” (Pfizer Inc., priority 2009, dated 2014)
Values after ≈ are worked out from the molar mass of the structure shown. Read-outs that look alike come from different tables or passages of the source.

Legend:
[1] = target: Pseudomonas aeruginosa LpxC enzyme (Pseudomonas aeruginosa (strain ATCC 15692 / DSM 22644 / CIP 104116 / JCM 14847 / LMG 12228 / 1C / PRS 101 / PAO1), UniProt P47205); assay: IC50 Assay, LpxC Enzyme from P. aeruginosa (PA LpxC Enzyme IC50); assay type: biochemical
Method: In order to assess the compounds biological activity, selected in-vitro assays were conducted on selected compounds. One of the assays measured the compounds ability to disrupt the synthesis of lipopolysaccharide, LPS, which is a component of the outer membrane of Gram-negative bacteria. Disruption of this synthesis is lethal to the bacteria. The assay determined the compound's ability to inhibit LpxC, which is the first enzyme in the biosynthetic pathway for LPS (measured as IC50). Additionally, MICs (minimal inhibitory concentrations) were determined for several bacteria. The specific protocols are described below:
A) IC50 Assay, LpxC Enzyme from P. aeruginosa (Labled as PA LpxC Enzyme IC50
At the end of 1 hour, 5 ul of 1N HCl was added to stop the enzyme reaction; the plates were centrifuged, and then processed with the BioTrove Rapidfire HTMS Mass Spectrometry System. A no-enzyme control was used in calculating the IC50 values from the percent conversion values.

[2] = system: Acinetobacter baumanii/haemolyticus: Multidrug-resistant clinical isolate (AB-3167); assay: MIC determination (CLSI), AB-3167; assay type: cell-based; settings: Acinetobacter baumannii
Summary of the method: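 Multidrug-resistant clinical isolate AB-3167 (A. baumannii/haemolyticus) tested for minimum inhibitory concentration following CLSI dilution susceptibility standards M7-A7 and M100-S18.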

[3] = system: Escherichia coli EC-1: VOGEL, mouse virulent; assay: MIC determination (CLSI), EC-1; assay type: cell-based; settings: Escherichia coli
Summary of the method: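 E. coli Vogel, a mouse-virulent strain (EC-1), was tested. MICs were set by dilution susceptibility testing per CLSI standards M7-A7/M100-S18.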

[4] = system: Klebsiella pneumoniae: Ciprofloxacin-resistant isolate, ESBL, clinical isolate (KP-3700); assay: MIC determination (CLSI), KP-3700; assay type: cell-based
Summary of the method: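 Strain KP-3700, a clinical isolate producing extended-spectrum β-lactamases and resistant to ciprofloxacin, was tested. Minimum inhibitory concentrations determined via CLSI dilution methodology (M7-A7; M100-S18).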

[5] = system: Pseudomonas aeruginosa UI-18: Wild-type (PA-7); assay: MIC determination (CLSI), PA-7; assay type: cell-based; settings: Pseudomonas aeruginosa
Summary of the method: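 Wild-type P. aeruginosa UI-18 tested for minimum inhibitory concentration. Broth/agar dilution following CLSI standards (M7-A7, M100-S18).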

[6] = Table 1, MIC, read-out: AB-3167 (MIC)
[7] = Table 1, MIC, read-out: PA-7 (MIC)

| Structure (SMILES) | IC50 ([1]; Table 1, read-out: PA LpxC enzyeme IC50) [nM] | MIC [2, 6] [µg/mL] | MIC ([3]; read-out: EC-1: (MIC)) [µg/mL] | KP-3700 MIC [4] | MIC [5, 7] [µg/mL] | IC50 ([1]; PA LpxC enzyeme IC50, Table 1) [nM] | MIC ([2]; Table 3, read-out: AB-3167 MIC) [µg/mL] | MIC ([3]; read-out: EC-1 MIC) [µg/mL] | MIC ([5]; Table 3, read-out: PA-7 MIC) [µg/mL] |
| --- | --- | --- | --- | --- | --- | --- | --- | --- | --- |
| CC(CCc1ccc(-c2ccc([N+](=O)[O-])cc2)cc1)(C(=O)NO)S(C)(=O)=O (racemic) [Example 5, (+/−)-N-hydroxy-2-methyl-2-(methylsulfonyl)-4-(4′-nitrobiphenyl-4-yl)butanamide] | 0.12 | 32 (≈ 81.5 µM) | 0.5 (≈ 1.27 µM) | 1 µg/mL | 0.5 (≈ 1.27 µM) |  |  |  |  |
| CC(CCc1ccc(OCc2ccccn2)cc1)(C(=O)NO)S(C)(=O)=O (racemic) [Example 16, (+/−)-N-Hydroxy-2-methyl-2-(methylsulfonyl)-4-[4-(pyridin-2-ylmethoxy)phenyl]butanamide] |  | ≥ 64 | ≥ 64 | ≧64 mg/L | 16 (≈ 42.3 µM) | 5.01 |  |  |  |
| CC(CCc1ccc(-c2ccc(F)cc2)cc1O)(C(=O)NO)S(C)(=O)=O (racemic) [Example 19, (+/−)-4-(4′-Fluoro-3-hydroxybiphenyl-4-yl)-N-hydroxy-2-methyl-2-(methylsulfonyl)butanamide] |  | ≥ 64 | 8 (≈ 21 µM) | 32 µg/mL | 16 (≈ 41.9 µM) | 3.43 |  |  |  |
| CC(CCc1ccc(OCC2CCC2)cc1)(C(=O)NO)S(C)(=O)=O (stereo not drawn) [Example 266, 4-[4-(cyclobutylmethoxy)phenyl]-N-hydroxy-2-methyl-2-(methylsulfonyl)butanamide] |  |  |  | ≧64 mg/L |  |  | 32 (≈ 90 µM) | 32 (≈ 90 µM) | 16 (≈ 45 µM) |
| CC(C)CCCOc1ccc(CCC(C)(C(=O)NO)S(C)(=O)=O)cc1 (stereo not drawn) [Example 267, N-hydroxy-2-methyl-4-{4-[(4-methylpentyl)oxy]phenyl}-2-(methylsulfonyl)butanamide] |  |  |  | ≧64 mg/L |  |  | 8 (≈ 21.5 µM) | 8 (≈ 21.5 µM) | 16 (≈ 43.1 µM) |
| CC(CCc1ccc(OCc2cccc(F)c2)cc1)(C(=O)NO)S(C)(=O)=O (stereo not drawn) [Example 268, 4-{4-[(3-fluorobenzyl)oxy]phenyl}-N-hydroxy-2-methyl-2-(methylsulfonyl)butanamide] |  |  |  | 8 µg/mL |  |  | 16 (≈ 40.5 µM) | 2 (≈ 5.06 µM) | 8 (≈ 20.2 µM) |
| Cc1ccc(-c2noc(COc3ccc(CCC(C)(C(=O)NO)S(C)(=O)=O)cc3)n2)cc1 (stereo not drawn) [Example 269, N-hydroxy-2-methyl-4-(4-{[3-(4-methylphenyl)-1,2,4-oxadiazol-5-yl]methoxy}phenyl)-2-(methylsulfonyl)butanamide] |  |  |  | ≧64 mg/L |  |  | ≥ 64 | 4 (≈ 8.7 µM) | ≥ 64 |
| Cc1ccc(COc2ccc(CCC(C)(C(=O)NO)S(C)(=O)=O)cc2)cn1 (stereo not drawn) [Example 270, N-hydroxy-2-methyl-4-{4-[(6-methylpyridin-3-yl)methoxy]phenyl}-2-(methylsulfonyl)butanamide] |  |  |  | ≧64 mg/L |  |  | ≥ 64 | ≥ 64 | 32 (≈ 81.5 µM) |
| CC(CCc1ccc(OCCc2ccccc2)cc1)(C(=O)NO)S(C)(=O)=O (stereo not drawn) [Example 271, N-hydroxy-2-methyl-2-(methylsulfonyl)-4-[4-(2-phenylethoxy)phenyl]butanamide] |  |  |  | ≧64 mg/L |  |  | 32 (≈ 81.7 µM) | 16 (≈ 40.9 µM) | ≥ 64 |
| CC(CCc1ccc(OCc2nc(C3CCCC3)no2)cc1)(C(=O)NO)S(C)(=O)=O (stereo not drawn) [Example 273, 4-{4-[(3-cyclopentyl-1,2,4-oxadiazol-5-yl)methoxy]phenyl}-N-hydroxy-2-methyl-2-(methylsulfonyl)butanamide] |  |  |  | 32 µg/mL |  |  | ≥ 64 | 16 (≈ 36.6 µM) | ≥ 64 |
| CC(CCc1ccc(OCc2cccc(OC(F)(F)F)c2)cc1)(C(=O)NO)S(C)(=O)=O (stereo not drawn) [Example 274, N-hydroxy-2-methyl-2-(methylsulfonyl)-4-(4-{[3-(trifluoromethoxy)benzyl]oxy}phenyl)butanamide] |  |  |  | 16 µg/mL |  |  | 16 (≈ 34.7 µM) | 4 (≈ 8.67 µM) | 16 (≈ 34.7 µM) |
| CC(CCc1ccc(OCc2cc(C#N)ccc2F)cc1)(C(=O)NO)S(C)(=O)=O (stereo not drawn) [Example 275, 4-{4-[(5-cyano-2-fluorobenzyl)oxy]phenyl}-N-hydroxy-2-methyl-2-(methylsulfonyl)butanamide] |  |  |  | ≧64 mg/L |  |  | ≥ 64 | ≥ 64 | 32 (≈ 76.1 µM) |
| CC(CCc1ccc(OCc2c(F)cccc2Cl)cc1)(C(=O)NO)S(C)(=O)=O (stereo not drawn) [Example 276, 4-{4-[(2-chloro-6-fluorobenzyl)oxy]phenyl}-N-hydroxy-2-methyl-2-(methylsulfonyl)butanamide] |  |  |  | 16 µg/mL |  |  | 32 (≈ 74.4 µM) | 4 (≈ 9.3 µM) | 4 (≈ 9.3 µM) |
| CC(CCc1ccc(OCc2nc3ccccc3s2)cc1)(C(=O)NO)S(C)(=O)=O (stereo not drawn) [Example 277, 4-[4-(1,3-benzothiazol-2-ylmethoxy)phenyl]-N-hydroxy-2-methyl-2-(methylsulfonyl)butanamide] |  |  |  | 16 µg/mL |  |  | ≥ 64 | 4 (≈ 9.21 µM) | 32 (≈ 73.6 µM) |
| CC(CCc1ccc(OCc2ccc3ccccc3n2)cc1)(C(=O)NO)S(C)(=O)=O (stereo not drawn) [Example 279, N-hydroxy-2-methyl-2-(methylsulfonyl)-4-[4-(quinolin-2-ylmethoxy)phenyl]butanamide] |  |  |  | ≧64 mg/L |  |  | ≥ 64 | 16 (≈ 37.3 µM) | ≥ 64 |
| CC(CCc1ccc(OCCc2ccncc2)cc1)(C(=O)NO)S(C)(=O)=O (stereo not drawn) [Example 311, N-hydroxy-2-methyl-2-(methylsulfonyl)-4-[4-(2-pyridin-4-ylethoxy)phenyl]butanamide] |  |  |  | ≧64 mg/L |  |  | ≥ 64 | ≥ 64 | 32 (≈ 81.5 µM) |
| CC(CCc1ccc(OCCC2CCCC2)cc1)(C(=O)NO)S(C)(=O)=O (stereo not drawn) [Example 312, 4-[4-(2-cyclopentylethoxy)phenyl]-N-hydroxy-2-methyl-2-(methylsulfonyl)butanamide] |  |  |  | ≧64 mg/L |  |  | 2 (≈ 5.21 µM) | 8 (≈ 20.9 µM) | 8 (≈ 20.9 µM) |
| CC(CCc1ccc(OCCCC2CCCC2)cc1)(C(=O)NO)S(C)(=O)=O (stereo not drawn) [Example 313, 4-[4-(3-cyclopentylpropoxy)phenyl]-N-hydroxy-2-methyl-2-(methylsulfonyl)butanamide] |  |  |  | 16 µg/mL |  |  | 2 (≈ 5.03 µM) | 4 (≈ 10.1 µM) | 16 (≈ 40.2 µM) |
| CC(CCc1ccc(OCCC2CCCCC2)cc1)(C(=O)NO)S(C)(=O)=O (stereo not drawn) [Example 314, 4-[4-(2-cyclohexylethoxy)phenyl]-N-hydroxy-2-methyl-2-(methylsulfonyl)butanamide] |  |  |  | ≧64 mg/L |  |  | 2 (≈ 5.03 µM) | 16 (≈ 40.2 µM) | 16 (≈ 40.2 µM) |
| CC(CCc1ccc(OCCCC2CCCCC2)cc1)(C(=O)NO)S(C)(=O)=O (stereo not drawn) [Example 315, 4-[4-(3-cyclohexylpropoxy)phenyl]-N-hydroxy-2-methyl-2-(methylsulfonyl)butanamide] |  |  |  | 16 µg/mL |  |  | 2 (≈ 4.86 µM) | 4 (≈ 9.72 µM) | 32 (≈ 77.8 µM) |
| CC(CCc1ccc(OCc2ccncc2)cc1)(C(=O)NO)S(C)(=O)=O (stereo not drawn) [Example 316, N-hydroxy-2-methyl-2-(methylsulfonyl)-4-[4-(pyridin-4-ylmethoxy)phenyl]butanamide] |  |  |  | ≧64 mg/L |  |  | 16 (≈ 42.3 µM) | 32 (≈ 84.6 µM) | 8 (≈ 21.1 µM) |
